Results on one compound are retold here after patent US20080153792A1, “Drug Identification and Treatment Method” (priority 2006, published 2008).

Molecules are shown by their SMILES.

Experiment [1] has as its system monocyte chemoattractant protein-1 (MCP-1). Description: MCP-1 RNA in perigonadal fat tissue, quantitative RT/PCR. It counts as in vivo, mouse. The note with it: 20 mg/kg; normalized with respect to the vehicle control. As to the method: In another study, total RNA from perigonadal fat tissue from lean db/+ or diabetic db/db mice treated with 20 mg/kg of 17α-ethynylandrost-5-ene-3β,7β,17β-triol was isolated and processed for quantitative RT/PCR using primers specific for monocyte chemoattractant protein-1 (MCP-1) using an iCycler iQ multicolor real time-detection system (Bio-Rad). RNA expression levels were normalized with respect to the vehicle control. […] For this study, vehicle was also administered to a control group of age matched lean heterozygous db/+ mice (n=7).

A further experiment has as its system 11β-HSD1. Briefly: expression of 11β-HSD1 in osteoblasts of treated mice. It counts as in vivo, mouse. To be noted: administration to mice.
The subject of experiment [2] is 8 week old db/db diabetic mice. Description: hyperinsulinemic-euglycemic clamp in db/db mice. It counts as in vivo, mouse. To be noted: oral gavage 14 days; insulin 10 mU/kg/min. As to the method: Glucose lowering in 8 week old db/db diabetic mice. The hyperinsulinemic-euglycemic clamp protocol was conducted to measure insulin sensitivity in vivo. In this procedure, insulin was administered to raise the insulin concentration while glucose was infused to maintain euglycemia or a fixed, normal blood glucose level (about 180 mg/dL). […] The objective of this protocol was to investigate characterize the capacity of 17α-ethynylandrost-5-ene-3β,7β,17β-triol and androst-5-ene-3β,7β,16α,17β-tetrol to ameliorate systemic insulin resistance and improve whole body glucose disposal in the hyperinsulinemic-euglycemic clamp model. The degree of skeletal muscle and hepatic insulin sensitivity and tissue specific glucose uptake were also assessed. The animals were dosed daily by oral gavage for 14 days. On Day 10 of treatment catheters were implanted in the carotid artery and jugular vein. On the day of the clamp (day 14) the compound was administered at 7:30 am.
Body weight and glucose concentration were assessed on day 0, 7 and day 14 of treatment. On day 14 a euglycemic hyperinsulinemic clamp was performed. […] Plasma ^14C 2-deoxyglucose was assessed at 122, 125, 130, 135, 145 min. […]
Analysis was conducted as follows. Plasma samples were deproteinized with Ba(OH)2 (0.3 N) and ZnSO4 (0.3 N), dried and radioactivity was assessed on scintillation counter (Packard TRICARB 2900 TR, Meriden, Conn.). […] One supernatant was directly counted to determine radioactivity from both [14C] […] A second aliquot was treated with Ba(OH)2 and ZnSO4 to remove ^14C DGP and any tracer incorporated into glycogen and then counted to determine radioactivity from free [^14C]DG(2). [^14C]DGP was calculated as the difference between the two aliquots. […] Rg, an index of tissue specific glucose uptake was calculated as previously described (E. W. Kraegen et al., Am. J. Physiol., 248:E353-E362, 1985). Whole body glucose turnover was calculated as the ratio of the ^3H glucose infusion rate (dpm/kg/min) and arterial plasma glucose specific activity (dpm/mg). […]

Experiment [3] has as its system NF-κB in nuclei from spleen cells. Briefly: kinetic analysis of NF-kB inhibition in vivo after LPS, Example 9. To be noted: about 40 mg/kg i.p. 24 h before LPS. The arrangement: species or system mouse. As to the method: Kinetic analysis of NF-kB inhibition in vivo. […] The drug was injected 24 hours before intraperitoneal injection of bacterial LPS (about an LD50/24). The study used two groups of 12 animals, vehicle control or drug administered 24 hours before LPS challenge. Spleens were harvested from 3 animals from both groups just before LPS challenge and at 1.5, 2.0 and 2.5 hours after administration of LPS.
Maximum NF-κB activation after LPS administration occurred at 1.5 hours in the vehicle controls, which was 4-fold increased over the pre-LPS level of activated NF-κB. The values for the vehicle control and drug treated animals are relative optical density units from ELISA measurement of NF-κB in nuclei from spleen cells.

Experiment [4] relates to estrogen receptor-s or estrogen receptor-s. Description: interaction with estrogen receptors.
The test system of another experiment is MG-63 cells. Description: reversal of glucocorticoid effects in MG-63 osteosarcoma cells. It counts as cell-based, human. The note with it: 1 nM compound; 7 hours; 30 nM dexamethasone.

In the case of `C#C[C@]1(O)CC[C@H]2[C@@H]3[C@@H](O)C=C4C[C@@H](O)CC[C@]4(C)[C@H]3CC[C@@]21C` [17α-ethynylandrost-5-ene-3β,7β,17β-triol], the “decrease of levels of MCP-1” value in experiment [1] is reported as “about 50%”. Besides, the “decrease of expression of 11β-HSD1 in osteoblasts” value in the experiment on 11β-HSD1 was “about 50%”. Also, the “glucose infusion rate compared to the vehicle control” value in experiment [2] is on record as “increased the glucose infusion rate”. For the same compound, the “activated NF-κB in spleen cell nuclei (ELISA)” value in experiment [3] (0 hours (just before LPS)) is recorded as 22 relative optical density units; in experiment [3] (1.5 hours after LPS), 2 relative optical density units; in experiment [3] (2.0 hours after LPS) it was 7 relative optical density units; in experiment [3] (2.5 hours after LPS) it was 9 relative optical density units. Besides, in experiment [4], the “interaction with estrogen receptor-s or estrogen receptor-s” value was “do not interact”. Besides, the “reversal of the decrease in osteoprotegerin synthesis” value in the experiment with MG-63 cells was “completely reversed”.
